Entries after “also recorded” stand apart in the source; their conditions may differ. Where a SMILES comes first, the peptide text is derived from it. The star is where a group is joined. Cbz = O=C(OCc1ccccc1)*; CHN2 = [N-]=[N+]=C*; tBu = CC(C)(C)*
Legend:
[1] = tested on: RSV G protein cleavage in Vero cells; experiment: Cell-surface RSV G protein cleavage in rgRSV-infected cells treated with protease inhibitors (biotinylation, immunoblot with mAb L9); format: cell-based; conditions: RSV-infected HeLa and Vero cells; 0.1 to 100 μM at 6 hpi; 24 hpi
Method: To elucidate the class of protease responsible for G protein cleavage in Vero cells, cells were treated with increasing concentrations of protease inhibitors after inoculating with recombinant green fluorescent protein expressing RSV (rgRSV). Cells were incubated with rgRSV for 2 h with tipping at 37° C. before replacing inoculum with fresh cell culture medium. Drugs were added at different times post infection. In each case, uninfected, no drug, and vehicle (at the highest concentration used) were included in all experiments as controls. In all experiments at 24 hpi, cell surface proteins were biotinylated, cells lysed and equivalent amounts of protein from each sample were mixed with streptavidin beads.
Aprotinin, a serine protease inhibitor, leupeptin, a serine/cysteine protease inhibitor; or E-64, a cysteine protease inhibitor were added to the cell culture media (3.125 to 50 μg/ml) from 2-24 hpi. The most likely proteins to be incorporated into the virions are cell surface proteins, so the cell surfaced was biotinylated, proteins isolated from lysed cells with streptavidin beads, and immunobloted with L9, a mAb to the G protein, as a probe (FIG. 1A). In the untreated and vehicle treated samples most of the cell surface G protein was cleaved (˜55 kDa), leaving only a small portion of full length (˜90 kDa) G protein. […] Since both leupeptin and E64 block the activity of cysteine proteases, the protease responsible for cleavage of the G protein in Vero cells is a cysteine protease.
To narrow the field of cysteine proteases, cells were treated at 6 hpi with a more specific cysteine protease inhibitor, ALLM (0.1 to 100 μM).
RSV-infected HeLa and Vero cells were treated with a cathepsin B inhibitor, CA-074 (0.1 to 100 μM), or a cathepsin L inhibitor, cathepsin L inhibitor III (0.1 to 100 μM) 6 hpi.
Cathepsin L is a protease present primarily in the interior of the lysosome and is optimally active at acidic pH. Vero cells expressing the G protein were treated with chloroquine to raise the pH of the lysosome. […] To generate FIG. 4C, cells were inoculated with RSV or mock inoculated. 6 hpi the cells were treated with increasing concentrations of chloroquine. 24 hpi cells were biotinylated and G protein assayed
HeLa and Vero cells were rgRSV (MOI: 1) or mock inoculated. 2 hpi the inoculum was replaced with fresh complete medium, and 4 hpi cells the medium was changed again to complete medium with 2-fold dilutions of these protease inhibitors (Sigma-Aldrich, St. Louis, Mo.), dissolved in water: Aprotinin (3.125 to 50 μg/ml); Leupeptin (6.25 to 100 μg/ml); E-64 (6.25 to 100 μg/ml); or equal volumes of water in medium. In other experiments, cells were treated at 6 hpi with: 10-fold dilutions (0.1 to 100 μM) of: Cathepsin inhibitor I (Calbiochem); ALLM (Santa Cruz, Dallas, Tex.); Chloroquine diphosphate salt (Sigma Aldrich) or equivalent volumes of vehicle (water); CA-074 (Calbiochem); Cathepsin L inhibitor III (Calbiochem); or an equal volume of vehicle (DMSO) in medium.
At 24 hpi cells were biotinylated with Ez-link Sulfo-NHS-LC-Biotin (Thermo Fisher). Cells were lysed with lysis buffer containing 150 mM NaCl, 1% Triton X-100, 50 mM Tris, 0.1% SDS, and 1× Halt protease cocktail inhibitor (Thermo Fisher). Proteins were quantified using BCA protein assay kit (Pierce, Waltham, Mass.), and equal amounts of protein were added to high capacity streptavidin agarose beads (Thermo Fisher). The mixtures were rotated for 1 h at 4° C., the beads were pelleted and washed with lysis buffer (without protease cocktail inhibitor), NuPage LDS sample buffer was added, and boiled for 5 min, separated by NuPAGE Novex 4-12% bis-tris protein gels and transferred to nitrocellulose in an iBlot transfer stack, using the iBlot transferring system (Life Technologies) for immunoblot analysis. […]

[2] = tested on: G protein from Vero cell virions; experiment: Virion-associated G protein of rgRSV grown in Vero cells with cathepsin L inhibitor (immunoblot); format: cell-based; conditions: for virion-associated G protein cleavage: rgRSV grown in Vero cells, 0.5 μM inhibitor at 7 hpi, harvested 72 hpi
Method: To verify that cathepsin L is sufficient to cleave the G protein, rgRSV was grown in Vero cells in the presence of cathepsin L inhibitor or vehicle. Viruses were harvested and pelleted through a 35% sucrose cushion to separate them from cathepsin L inhibitor. Viruses were resuspended in buffer with pH5.5 and treated with cathepsin L or vehicle. […] Vero cells were inoculated with rgRSV or mock inoculated for 2 h, at which time the inoculum was replaced with fresh medium. Vero cells were treated with medium containing 0.5 μM cathepsin L inhibitor III at 7 hpi. 72 hpi the medium was harvested and virus was pelleted through a 35% sucrose cushion. The pelleted Vero-derived (VeD) virus was resuspended in buffer (pH5.5) containing 50 ng/d cathepsin L or vehicle.
(§1) At 72 hpi the medium was collected and virus pelleted through a 35% sucrose cushion to partially purify and concentrate it. The virus pellet was resuspended and half was further purified by linear sucrose density gradient. The G protein from these purified virions was analyzed by immunoblot. The G protein from HeLa cell virions migrated at 90 kDa and was not affected by the inhibitor (FIG. 5A). […] FIG. 5A was generated by inoculating HeLa or Vero cells for 2 h and treating them with cathepsin L inhibitor or DMSO beginning at 8 hpi.
The effect of protease inhibitors on the infectivity of RSV produced by Vero and HeLa cells was tested by inoculating cells and 2 hpi media was changed. At 7 hpi medium containing […] cathepsin L inhibitor III (Calbiochem, San Diego, Calif.) or an equal volume of the vehicle, DMSO was added to the cells. […] Fractions containing virus were separated by SDS-PAGE and G protein detected by immunoblot using a mAb, L9 (Edward Walsh, University of Rochester).

[3] = tested on: G protein from HeLa cell virions; experiment: Virion-associated G protein of rgRSV grown in HeLa cells with cathepsin L inhibitor (immunoblot); format: cell-based; conditions: inhibitor beginning at 8 hpi; virus collected 72 hpi; G migrated at 90 kDa
Method: as §1
The effect of protease inhibitors on the infectivity of RSV produced by Vero and HeLa cells was tested by inoculating cells and 2 hpi media was changed. At 7 hpi medium containing […] cathepsin L inhibitor III (Calbiochem, San Diego, Calif.) or an equal volume of the vehicle, DMSO was added to the cells. 72 hpi virus was harvested as described above, but instead of aliquoting and snap freezing, 15 ml of virus-containing medium was layered on top of 15 ml of 35% sucrose cushion in 1× Hanks Balanced Salt Solution, with calcium and magnesium, and centrifuged overnight at 4° C. and 26,000×g in an F14-14×50cy rotor for Sorvall Lynx 6000 (Thermo Fisher) to remove the drug and partially purify the virus. […] Fractions containing virus were separated by SDS-PAGE and G protein detected by immunoblot using a mAb, L9 (Edward Walsh, University of Rochester).

HAE cultures = experiment: Infection of HAE cultures by rgRSV produced in the presence of cathepsin L inhibitor; format: cell-based, human
Method: as §1
The remaining virus that had been partially purified through the 35% sucrose cushion was titrated on HeLa cells. Equivalent amounts of infectious virus, determined on HeLa cells, were used to inoculate HAE cultures. […] For FIG. 5B, equivalent amount of infectious virus, determined by titration on HeLa cells, was used to inoculate HAE cultures. 48 hpi green cells were counted. *p<0.0001 (unpaired, 2-tailed t-test).
Primary, well-differentiated human airway epithelial (HAE) cultures were generated from human airway tissue (Fulcher et al., Methods Mol Med (2005) 107:183-206). For infection experiments they were grown on collagen coated Trans-well inserts (Corning Incorporated). […]
The effect of protease inhibitors on the infectivity of RSV produced by Vero and HeLa cells was tested by inoculating cells and 2 hpi media was changed. […] Fractions containing virus were separated by SDS-PAGE and G protein detected by immunoblot using a mAb, L9 (Edward Walsh, University of Rochester).
The apical surface of well-differentiated HAE cultures in Trans-wells was washed with DPBS for 2 h and the basal medium changed before equivalent pfu (titrated in HeLa cells), between 2,000 and 10,000 pfu, depending on the HAE culture source, were diluted in HAE medium and added to the apical chamber of the Trans-well. […] Fluorescent (green) cells were visualized with an EVOS fl inverted fluorescence microscope (Life Technologies) and counted in HeLa cultures at 24 hpi and on HAE cultures at 48 hpi. Three or more experiments were pooled and analyzed together.

CC(C)(C)Oc1ccc(C[C@H](NC(=O)[C@H](Cc2ccccc2)NC(=O)OCc2ccccc2)C(=O)C=[N+]=[N-])cc1 [cathepsin L inhibitor III] (Cbz-Phe-Tyr(tBu)-CHN2)
G protein cleavage (cell surface G protein) [1]: prevention of cleavage; also recorded: almost completely prevented G protein cleavage | migration of G protein from Vero cell virions ([2]; inhibitor beginning at 8 hpi, virus collected 72 hpi, without inhibitor primarily 55 kDa): converted to 90 kDa | virion-associated G protein cleavage [2]: cleavage is prevented | virion-associated G protein cleavage ([2]; listed as cathepsin L inhibitor): cleavage prevention | migration of G protein from HeLa cell virions [3]: not affected | ability of Vero-derived virus to infect HAE cells (HAE cultures; inhibitor present during viral production): increasing the ability of Vero-derived virus to infect HAE cells | effect on ability of HeLa grown virus to infect HAE cultures (HAE cultures; inhibitor present during virus production in HeLa, green cells counted 48 hpi): little, if any, effect | increase in ability of Vero-grown virus to infect HAE cells (HAE cultures; inhibitor present during virus production in Vero, green cells counted 48 hpi, vs DMSO): 7 fold

— patent US10758607B2, “Respiratory syncytial virus having cleavage-resistant G protein and related materials and methods” (The Research Institute at Nationwide Children's Hospital, priority 2015, dated 2020)
